Among the data in PubChem BioAssay AID328 (DTP/NCI, 2004) are T/C values, retold here.

The test has as its system BDF1 mice, P388 leukemia ip, median survival T/C. Kind of test: NCI In Vivo Anticancer Drug Screen. Data for tumor model P388 Leukemia (intraperitoneal) in B6D2F1 (BDF1) mice. Particulars: endpoint: median survival time, higher = longer survival. In short, it runs like this: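 In tumour-bearing mice, survival after compound treatment is set against the vehicle group and given as a quotient.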

The mark [1] stands for this setting: dose: 100.0 mg/kg/injection, schedule: Q04DX003 (ip), vehicle: Klucel (hydroxypropylcellulose) (HPC).
The mark [2] stands for this setting: dose: 200.0 mg/kg/injection, schedule: Q04DX003 (ip), vehicle: Klucel (hydroxypropylcellulose) (HPC).
Setting [3] is: dose: 400.0 mg/kg/injection, schedule: Q04DX003 (ip), vehicle: Klucel (hydroxypropylcellulose) (HPC).
The mark [4] stands for this setting: dose: 50.0 mg/kg/injection, schedule: Q04DX003 (ip), vehicle: saline.
[5] abbreviates: dose: 75.0 mg/kg/injection, schedule: Q04DX003 (ip), vehicle: saline.
Where [6] appears, read: dose: 100.0 mg/kg/injection, schedule: Q04DX003 (ip), vehicle: saline.
The mark [7] stands for this setting: dose: 50.0 mg/kg/injection, schedule: Q01DX009 (ip), vehicle: saline.
[8] abbreviates: dose: 100.0 mg/kg/injection, schedule: Q01DX009 (ip), vehicle: saline.
[9] abbreviates: dose: 50.0 mg/kg/injection, schedule: Q01DX009 (ip), vehicle: saline with Tween-80.
The mark [10] stands for this setting: dose: 100.0 mg/kg/injection, schedule: Q01DX009 (ip), vehicle: saline with Tween-80.
[11] abbreviates: dose: 200.0 mg/kg/injection, schedule: Q01DX009 (ip), vehicle: saline with Tween-80.
The mark [12] stands for this setting: dose: 200.0 mg/kg/injection, schedule: Q01DX009 (ip), vehicle: saline.
[13] abbreviates: dose: 400.0 mg/kg/injection, schedule: Q01DX009 (ip), vehicle: saline.
The mark [14] stands for this setting: dose: 12.5 mg/kg/injection, schedule: Q01DX009 (ip), vehicle: saline with Tween-80.
Setting [15] is: dose: 25.0 mg/kg/injection, schedule: Q01DX009 (ip), vehicle: saline.
Where [16] appears, read: dose: 25.0 mg/kg/injection, schedule: Q01DX009 (ip), vehicle: saline with Tween-80.

SMILES strings stand for the structures. “And” between values parts separate entries of the source, which are not always exact repeats. Equal values may be shown once. Inconclusive results and toxic doses are left out.

On to `COc1cc(C)ccc1C(=O)c1ccc(C)cc1OC`, for which the T/C by setting is: under setting [1], 90 % of control; under setting [2], 90 % of control; under setting [3], 109 % of control.
In the case of `CCc1c2cc(OC)c(OC)cc2cc2c3cc(OC)c(OC)cc3cc[n+]12` (tested in a mixture with another compound), the T/C under setting [4] was 150 % of control; the T/C under setting [5] was 150 % of control; the T/C under setting [6] is 166 % of control; the T/C (dose: 150.0 mg/kg/injection, schedule: Q04DX003 (ip), vehicle: saline) is 158 % of control.
As to `OCC12COCN1COC2`, the T/C under setting [7] is 104 % of control and the T/C under setting [8] was 104 % of control.
For `CSCCCNC(=O)c1csc(-c2csc(CCNC(=O)C(F)(F)F)n2)n1`, the T/C is, setting by setting: under setting [9], 103 % of control; under setting [10], 114 % of control; under setting [11], 87 % of control.
Take `CCOC(N)=O`: the T/C reads like this: under setting [8], 120 % of control; (dose: 125.0 mg/kg/injection, schedule: Q01DX010 (ip), vehicle: saline) 154 % of control; under setting [12], 90 % of control; (dose: 250.0 mg/kg/injection, schedule: Q01DX010 (ip), vehicle: saline) 154 % of control; under setting [13], 100 % of control; (dose: 500.0 mg/kg/injection, schedule: Q01DX010 (ip), vehicle: saline) 113 % of control.
Regarding `CCCCCCCCOP(=O)(N1CC1C)N1CC1C` (stereo unspecified), under setting [6], the T/C was 154 % of control.
For `CC(=O)OC1CCC2(C)C3CCC4(C)C(O)CCC4C3CC(O)C2(O)C1` (stereo unspecified), the T/C runs as follows: under setting [7], 103 % of control; under setting [8], 88 % of control; under setting [12], 107 % of control.
For the compound `C=CC(OC(C)=O)OC(C)=O`, the T/C is 104 % of control (dose: 6.0 mg/kg/injection, schedule: Q01DX009 (ip), vehicle: saline with Tween-80); 115 % of control (dose: 8.0 mg/kg/injection, schedule: Q01DX009 (ip), vehicle: saline with Tween-80); 111 % of control (dose: 12.0 mg/kg/injection, schedule: Q01DX009 (ip), vehicle: saline with Tween-80); 108 % of control (dose: 12.5 mg/kg/injection, schedule: Q04DX003 (ip), vehicle: saline with Tween-80); 100 % of control (dose: 18.0 mg/kg/injection, schedule: Q01DX009 (ip), vehicle: saline with Tween-80); 117 % of control (dose: 25.0 mg/kg/injection, schedule: Q04DX003 (ip), vehicle: saline with Tween-80).
In the case of `O=C[C@@H](CO)O[C@H](C=O)n1cnc2c(=O)[nH]cnc21`, the T/C was 170 % of control (dose: 108.0 mg/kg/injection, schedule: Q04DX003 (ip), vehicle: water); 179 % of control and 184 % of control (dose: 180.0 mg/kg/injection, schedule: Q04DX003 (ip), vehicle: water); 227 % of control and 247 % of control (dose: 300.0 mg/kg/injection, schedule: Q04DX003 (ip), vehicle: water).
As to `NC(=O)/C=C/C(=O)c1c(Cl)cccc1Cl`, the T/C is, setting by setting: (dose: 1.56 mg/kg/injection, schedule: Q01DX009 (ip), vehicle: saline with Tween-80) 109 % of control and 115 % of control; (dose: 3.13 mg/kg/injection, schedule: Q01DX009 (ip), vehicle: saline with Tween-80) 118 % of control; (dose: 6.25 mg/kg/injection, schedule: Q01DX009 (ip), vehicle: saline with Tween-80) 123 % of control and 124 % of control; under setting [14], 95 % of control.
On to `COc1cc(NC(N)=O)cc(OC)c1OC`, for which the T/C by setting is: (dose: 18.75 mg/kg/injection, schedule: Q04DX003 (ip), vehicle: saline sonified) 100 % of control; (dose: 37.5 mg/kg/injection, schedule: Q04DX003 (ip), vehicle: saline sonified) 86 % of control; (dose: 75.0 mg/kg/injection, schedule: Q04DX003 (ip), vehicle: saline sonified) 100 % of control.
For the compound `CN=C(N)c1ccc(N=C(N)c2ccc(C(N)=Nc3ccc(C(N)=NC)cc3)cc2)cc1`, the T/C runs as follows: (dose: 13.2 mg/kg/injection, schedule: Q01DX009 (ip), vehicle: saline) 150 % of control and 172 % of control; (dose: 20.0 mg/kg/injection, schedule: Q01DX009 (ip), vehicle: saline) 240 % of control and 218 % of control; (dose: 30.0 mg/kg/injection, schedule: Q01DX009 (ip), vehicle: saline) 268 % of control and 218 % of control.
`NC1CC[N-]CC1.NC1CC[N-]CC1.[Cl][Pt+2]([Cl])([Cl])[Cl]`: the T/C (dose: 3.12 mg/kg/injection, schedule: Q01DX009 (ip), vehicle: saline) was 109 % of control; the T/C (dose: 6.25 mg/kg/injection, schedule: Q01DX009 (ip), vehicle: saline) is 100 % of control and 118 % of control; the T/C (dose: 12.5 mg/kg/injection, schedule: Q01DX009 (ip), vehicle: saline) was 108 % of control; the T/C under setting [15] is 120 % of control; the T/C under setting [7] was 111 % of control.
In the case of `CCCCCCCCCCCCC1CC(=O)OC1=O` (stereo unspecified), the T/C (dose: 75.0 mg/kg/injection, schedule: Q01DX009 (ip), vehicle: Klucel (hydroxypropylcellulose) (HPC)) was 90 % of control; the T/C under setting [1] is 104 % of control; the T/C under setting [6] is 108 % of control; the T/C (dose: 150.0 mg/kg/injection, schedule: Q01DX009 (ip), vehicle: Klucel (hydroxypropylcellulose) (HPC)) is 90 % of control; the T/C under setting [2] was 109 % of control; the T/C (dose: 300.0 mg/kg/injection, schedule: Q01DX009 (ip), vehicle: Klucel (hydroxypropylcellulose) (HPC)) was 109 % of control. The T/C reads like this: under setting [3], 100 % of control; (dose: 400.0 mg/kg/injection, schedule: Q04DX003 (ip), vehicle: saline) 120 % of control.
For `CN(C)CCCN1CCC2(CC[C@H]3CCCC[C@@H]3C2)CC1`, the T/C by setting is: (dose: 18.75 mg/kg/injection, schedule: Q04DX003 (ip), vehicle: saline) 100 % of control; (dose: 37.5 mg/kg/injection, schedule: Q04DX003 (ip), vehicle: saline) 109 % of control; under setting [5], 113 % of control.
With `CC(C)CC(NC(=O)CN)C(=O)O` (stereo unspecified), the T/C reads like this: under setting [16], 98 % of control; under setting [9], 99 % of control; under setting [10], 102 % of control; under setting [11], 111 % of control; under setting [12], 118 % of control; under setting [13], 96 % of control.
Take `COC(=O)CCC(=O)/C=C1/Nc2ccccc2C1=O`: the T/C by setting is: under setting [4], 90 % of control; under setting [6], 110 % of control; (dose: 200.0 mg/kg/injection, schedule: Q04DX003 (ip), vehicle: saline) 120 % of control.
On to `CC(=O)Nc1ccc(S(=O)(=O)N(CCO)c2ccccc2)cc1`, for which the T/C under setting [14] was 104 % of control; the T/C (dose: 12.5 mg/kg/injection, schedule: Q04DX003 (ip), vehicle: Klucel (hydroxypropylcellulose) (HPC)) was 100 % of control; the T/C under setting [16] was 104 % of control; the T/C (dose: 25.0 mg/kg/injection, schedule: Q04DX003 (ip), vehicle: Klucel (hydroxypropylcellulose) (HPC)) was 109 % of control; the T/C under setting [9] is 96 % of control; the T/C (dose: 50.0 mg/kg/injection, schedule: Q04DX003 (ip), vehicle: Klucel (hydroxypropylcellulose) (HPC)) is 109 % of control. Also, the T/C under setting [2] was 87 % of control.
For `O[C@]12CC=CC[C@]1(O)CC(N1CCCCC1)C2`, the T/C reads like this: under setting [15], 99 % of control; under setting [7], 124 % of control; under setting [8], 92 % of control.
Take `NC(=O)c1c(Cl)nc(-c2cccc([N+](=O)[O-])c2)c([N+](=O)[O-])c1C(F)(F)F`: the T/C runs as follows: (dose: 50.0 mg/kg/injection, schedule: Q01DX005 (ip), vehicle: saline with Tween-80) 87 % of control; (dose: 100.0 mg/kg/injection, schedule: Q01DX005 (ip), vehicle: saline with Tween-80) 115 % of control; (dose: 200.0 mg/kg/injection, schedule: Q01DX005 (ip), vehicle: saline with Tween-80) 112 % of control.
For `Cc1ccc(-c2cc(C)n(C)[n+]2C)cc1`, the T/C runs as follows: under setting [14], 108 % of control; under setting [16], 110 % of control.
